Assay results from patent publication US4745102A, “Novel treatment method” (Roussel Uclaf, priority 1979, dated 1988).
“Also recorded” adds a separate entry of the source.

How the values were obtained:
[1] = system: testicular steroidogensis; assay: Inhibition of testicular steroidogenesis in healthy men, single intranasal dose; seric LH, FSH and steroids by radioimmunoassay; format: in vivo
Description: The inhibitory activity of [D Ser (tbu)^6 of des Gly NH2^10 ] LH-RH ethylamide (described in German application Ser. No. 2,438,350) against testicular steroidogensis in men in good health was determined on men in good health aged 30 to 40 years. The said product was administered intranasally at a dose of 500 μg in a few drops of distilled water at 8 A.M. on the third day of the test. For 2 days prior to the treatment and for 6 days after the treatment, samples of blood were taken daily at 8 A.M., 3 P.M. and 10 P.M. On the day of administration of the LH-RH agonist, blood samples were taken at 11 A.M. and 6 P.M.
The seric concentrations of LH and FSH were measured by radioimmuno-logic dosages with double antibodies and the antibodies for measuring LH and FSH were furnished by the National Pituitary Agency of N.I.H. in Bethesda, Md. The seric concentrations of steroids was measured by radioimmuno-logic dosages in which one ml of serum was extracted with ether and the steroids were separated on a LH-20 column before measuring with radioimmuno-logic dosages. The radioimmuno-logic dosage results were determined by a program derived from model II of Rodbard et al [Second Karolinska Symposium on Research Methods in Reproductive Endrocrinology, Diczfalusky Editor, Copenhague (1970), p. 79-103]. The statistical significance was determined by the "multiple level test" of Ducan-Kramer [Kramer, Biometrics, Vol 12 (1956), p. 307]. The results are shown in the graphs on sheet 1 of the FIGS. filed herewith.

[2] = system: testicular steriodogenosis; assay: Inhibition of testicular steroidogenesis in a patient with prostate cancer, intranasal twice a day; format: in vivo, human; details: intranasal 500 μg twice a day
Source text: The inhibitory activity of [D Ser (tbu)^6 des Gly NH2^10 ] […] The results are reported in the graphs of sheet 2 of the Figures.

ovarian steroidogenosis = assay: Inhibition of ovarian steroidogenesis in women, intranasal, 6 consecutive cycles; format: in vivo; details: for reduction of seric levels of progesterone as compared to the controls: typical case (sheet 3)
Description: The inhibitory activity of [D Ser (tbu)^6 des Gly NH2^10 ] LH-RH ethylamide on ovarian steroidogenosis in women was determined on 6 women aged 26 to 35 years with normal and regular menstrual cycles and without prior endocrinal or gynecological problems. The study was conducted for 6 consecutive cycles consisting of 2 pretreatment cycles, 2 treatment cycles and 2 post-treatment cycles. Two drops of a solution containing 500 μg of [D Ser (tbu)^6 des Gly NH2^10 ] LH-RH ethylamide were deposited on each nostril at 8 A.M. and 5P.M. of a day between the 4th and 9th day after the peak of LH-day 0. Daily blood samples were taken between 4 and 6 P.M. to measure seric levels of LH, FSH, progesterone and estradiol which were determined by radioimmuno-logictests with double antibodies. The antibodies to measure LH and FSH were furnished by the National Pituitory Agency of N.I.H. of Bethesda, Md.
Estradiol and progesterone were measued with highly specific antibodies developed against 7-(0-carboxymethyl)oxime of estradiol and 12-(0-carboxymethyl)-oxime of progesterone, respectively [3H] 17β-estradiol and ^125 I-progesterone-12-[0-carboxymethyl)-oxime]used as tracers. The serum was extracted with benzene and the steroids were separated with a LH-20 column before the determination. The radioimmunological results were exploited by the program derived from model II of Rodbard and Lewald as in Example 1 and the statistical significance was measured by the multiple level test of Ducan-Kramer of Example 1. The results are shown in the graphs of sheets 3 to 5 of the FIG.

CCNC(=O)[C@@H]1CCCN1C(=O)[C@H](CCCNC(=N)N)NC(=O)[C@H](CC(C)C)NC(=O)[C@@H](COC(C)(C)C)NC(=O)[C@H](Cc1ccc(O)cc1)NC(=O)[C@H](CO)NC(=O)[C@H](Cc1c[nH]c2ccccc12)NC(=O)[C@H](Cc1c[nH]cn1)NC(=O)[C@@H]1CCC(=O)N1 [[D Ser (tbu)^6 des Gly NH2^10] LH-RH ethylamide]
duration of drop of seric levels of testicular steroids (testosterone and its precursors) ([1]; human, single intranasal dose 500 μg): 3 days
level of testosterone/steroids on the fourth day after administration ([1]; human, single intranasal dose 500 μg, fourth day (until 6th day)): returned to normal; also recorded: return to normal levels
overall effect on testicular steroidogenesis ([1]; men, intranasal 500 μg): inhibition of testicular steroidogenesis
level of androgenic steroids [2]: diminution
level of progesterone, cycles of pretreatment as base of 100% (ovarian steroidogenosis; 12 cycles of post-treatment): 99%
level of progesterone, cycles of pretreatment as base of 100% (ovarian steroidogenosis; 12 cycles of treatment): 46%
level of progesterone reduced as compared to the controls (ovarian steroidogenosis; all results (sheet 5), cycles of treatment): 46%
level of seric progesterone in the 2 cycles of post-treatment (ovarian steroidogenosis; sheet 4, post-treatment cycles): return to normal
level of seric progesterone in the 2 cycles of treatment (ovarian steroidogenosis; sheet 4, treatment cycles): accelerated diminution
reduction of seric levels of progesterone as compared to the controls (ovarian steroidogenosis; first cycle of treatment, intranasal 500 μg at 8 A.M. and 5 P.M.): 13%
reduction of seric levels of progesterone as compared to the controls (ovarian steroidogenosis; second cycle of treatment): 34%
